Test results as given in patent US20100129432A1, “MICROORGANISM-KILLING COMBINATION” (TAIPEI MEDICAL UNIVERSITY, priority 2008, published 2010).

Assays:
[1] = system: Staphylococcus aureus (BCRC 10780); test: Rose Bengal, Methylene Blue and Chlorin e6 mediated PDI with or without chitosan, survival fraction; assay type: cell-based
Candida albicans = test: Toluidine blue or Methylene Blue mediated PDI with or without 0.6% chitosan, survival fraction; details: for PDI effect (survival fraction): 0.5 mM photosensitizer, 630±5 nm LED 50 J/cm^2, without chitosan; for survival fraction of Candida albicans: 0.6% (w/v) chitosan added after the PDI, 50 J/cm^2

**Q.** O=C1OC2(c3cc(I)c(O)c(I)c3Oc3c2cc(I)c(O)c3I)c2c(Cl)c(Cl)c(Cl)c(Cl)c21 [RB, Rose Bengal] was tested. Which “PDI effect (survival fraction)” value ([1]; 0.025 μM RB, 25 J/cm^2, 0.025% chitosan) did it give?
**A.** The value was “complete removal of the bacteria”.

**Q.** What about the “PDI effect (survival fraction)” value ([1]; 0.025 μM RB, 25 J/cm^2, without chitosan) of the same compound?
**A.** Its value is “not able to result in complete eradication”.

**Q.** chlorine e6 [Ce6] was tested. Which “PDI effect (survival fraction)” value ([1]; 0.05 μM Ce6, 0.1% (w/v) chitosan, 10 J/cm^2) did it give?
**A.** The value was “complete eradication”.

**Q.** What about the “PDI bacterial killing effect” value ([1]; 0.05 μM Ce6 with chitosan, concentration dependent manner (0.01-0.1 μM)) of the same compound?
**A.** Its value is “significantly enhance”.

**Q.** What does the source list for Cc1cc2nc3ccc(N(C)C)cc3[s+]c2cc1N.[Cl-] [TB, toluidine blue]?
**A.** PDI effect (survival fraction) (Candida albicans): partially effective; survival fraction of Candida albicans (Candida albicans): greatly reduced

**Q.** CN(C)c1ccc2nc3ccc(=[N+](C)C)cc-3sc2c1 [MB, methylene blue] was tested. Which “PDI effect (survival fraction)” value ([1]; 2 μM MB, 0 J/cm^2, without chitosan) did it give?
**A.** Its value is “ineffective”.

**Q.** And the “PDI effect (survival fraction)” value ([1]; 2 μM MB, 0.025% (w/v) chitosan)?
**A.** Its value is “significantly enhanced”.

**Q.** And the “PDI effect (survival fraction)” value ([1]; 2 μM MB, 0.025% (w/v) chitosan, 10-20 J/cm^2)?
**A.** Its value is “complete eradication”.

**Q.** What about the “PDI effect (survival fraction)” value ([1]; 2 μM MB, 5 J/cm^2, without chitosan) of the same compound?
**A.** Its value is “slightly effective”.

**Q.** And the “PDI effect (survival fraction)” value ([1]; 2 μM MB, 10-20 J/cm^2, without chitosan)?
**A.** Its value is “apparently more effective than the lower dose”.

**Q.** And the “PDI effect (survival fraction)” value (Candida albicans)?
**A.** Its value is “partially effective”.

**Q.** What about the “survival fraction of Candida albicans” value (Candida albicans) of the same compound?
**A.** The value was “greatly reduced”.
